Data on eleven compounds can be found in patent US11203613B2, “Peptidomimetic proteasome inhibitors” (CORNELL UNIVERSITY, priority 2017, dated 2021).

The assay deals with Human Constitutive (Hu C-20S) β5 Active Subunit (Homo sapiens, UniProt P28074). The assay is described as follows: IC50 determination, human constitutive 20S proteasome β5c (suc-LLVY-AMC hydrolysis). Type of assay: biochemical. The settings on record: Table 3; IC50 against human constitutive β5 active subunit; read-out: Hu-C20S β5.
With `CC[C@H]1CCCCN1C(=O)C[C@H](Nc1nc(Cc2ccc(F)cc2)no1)C(=O)N[C@@H](C)c1nc2c(F)cccc2[nH]1` [CEN-27, (S)-4-((S)-2-Ethylpiperidin-1-yl)-N—((S)-1-(4-fluoro-1H-benzo[d]imidazol-2-yl)ethyl)-2-((3-(4-fluorobenzyl)-1,2,4-oxadiazol-5-yl)amino)-4-oxobutanamide], the IC50 came out at 1.4 µM.

For the compound `CC[C@H]1CCCCN1C(=O)C[C@H](NC(=O)CCC(C)C)C(=O)N[C@@H](C)c1nc2ccccc2[nH]1` [CEN-28, N—((S)-1-(((S)-1-(1H-Benzo[d]imidazol-2-yl)ethyl)amino)-4-((S)-2-ethylpiperidin-1-yl)-1,4-dioxobutan-2-yl)-4-methylpentanamide], the IC50 turned out to be 14.8 µM.

Consider `CC[C@H]1CCCCN1C(=O)C[C@H](NC(=O)CCC(C)(C)C)C(=O)N[C@@H](C)c1nc2ccccc2[nH]1` [CEN-29, N—((S)-1-(((S)-1-(1H-Benzo[d]imidazol-2-yl)ethyl)amino)-4-((S)-2-ethylpiperidin-1-yl)-1,4-dioxobutan-2-yl)-4,4-dimethylpentanamide], for which the IC50 turned out to be 6.9 µM.

In the case of `Cc1ncc(C(=O)N[C@@H](CC(=O)N2CCCC[C@@H]2C)C(=O)N[C@@H](C)c2nc3c(F)cccc3[nH]2)s1` [CEN-30, N—((S)-1-(((S)-1-(4-Fluoro-1H-benzo[d]Imidazol-2-yl)ethyl)amino)-4-((S)-2-methylpiperidin-1-yl)-1,4-dioxobutan-2-yl)-2-methylthiazole-5-carboxamide], the IC50 stood at 4.5 µM.

On to `CC(C)CCC(=O)N[C@@H](CC(=O)N1CCCC[C@@H]1C)C(=O)NCc1nc2ccccc2[nH]1` [CEN-31, N—((S)-1-(((1H-Benzo[d]imidazol-2-yl)methyl)amino)-4-((S)-2-methylpiperidin-1-yl)-1,4-dioxobutan-2-yl)-4-methylpentanamide], for which the IC50 was 17.6 µM.

`CC(C)CCC(=O)N[C@@H](CC(=O)N1CCCC[C@@H]1C)C(=O)N[C@@H](C)c1nc2ccccc2[nH]1` [CEN-32, N—((S)-1-(((S)-1-(1H-Benzo[d]imidazol-2-yl)ethyl)amino)-4-((S)-2-methylpiperidin-1-yl)-1,4-dioxobutan-2-yl)-4-methylpentanamide]: the IC50 amounted to 23.5 µM.

On to `C[C@H](NC(=O)[C@H](CC(=O)N1CCC[C@@H]1C)NC(=O)CCC(C)(C)C)c1nc2ccccc2[nH]1` [CEN-33, N—((S)-1-(((S)-1-(1H-Benzo[d]imidazol-2-yl)ethyl)amino)-4-((S)-2-methylpyrrolidin-1-yl)-1,4-dioxobutan-2-yl)-4,4-dimethylpentanamide], for which the IC50 came out at 16.5 µM.

As for `CC(C)CCC(=O)N[C@@H](CC(=O)N1CCCC[C@@H]1C)C(=O)N[C@H](C)c1nc2ccccc2[nH]1` [CEN-34, N—((S)-1-(((R)-1-(1H-Benzo[d]imidazol-2-yl)ethyl)amino)-4-((S)-2-methylpiperidin-1-yl)-1,4-dioxobutan-2-yl)-4-methylpentanamide], the IC50 was determined as 15.6 µM.

For the compound `Cc1cc(C(=O)N[C@@H](CC(=O)N2CCCC[C@@H]2C)C(=O)NC(C)c2nc3ccccc3[nH]2)no1` (stereo partly drawn) [CEN-35, N-((2S)-1-((1-(1H-Benzo[d]imidazol-2-yl)ethyl)amino)-4-((S)-2-methylpiperidin-1-yl)-1,4-dioxobutan-2-yl)-5-methylisoxazole-3-carboxamide], the IC50 was 19.6 µM.

Consider `Cc1cc(C(=O)N[C@@H](CC(=O)N2CCCC[C@@H]2C)C(=O)N[C@@H](C)c2nc3ccccc3[nH]2)no1` [CEN-36, N—((S)-1-(((S)-1-(1H-Benzo[d]imidazol-2-yl)ethyl)amino)-4-((S)-2-methylpiperidin-1-yl)-1,4-dioxobutan-2-yl)-5-methylisoxazole-3-carboxamide], for which the IC50 was found to be 17.5 µM.

As to `C[C@@H](NC(=O)[C@H](CC(=O)N1CCCC[C@@H]1C)NC(=O)CCC(C)(C)C)c1nc2ccccc2[nH]1` [CEN-37, N—((S)-1-(((R)-1-(1H-Benzo[d]imidazol-2-yl)ethyl)amino)-4-((S)-2-methylpiperidin-1-yl)-1,4-dioxobutan-2-yl)-4,4-dimethylpentanamide], the IC50 was found to be 17.3 µM.
